Measured values: ChEMBL document CHEMBL4342454, “Unraveling Structures Containing Highly Conjugated Pyrrolo[4,3,2-de]quinoline Cores That Are Deficient in Diagnostic Proton NMR Signals” (J Nat Prod, 2020)
The source made the active and inactive calls.

Experiments:
Hep293TT = assay: Cytotoxicity against human Hep293TT cells after 48 hrs by sulforhodamine B assay; assay type: functional, cell-based
[1] = test system: Yersinia pseudotuberculosis; assay: Inhibition of Yersinia pseudotuberculosis Type 3 secretion system protein by SDS-PAGE analysis
Homo sapiens [2] = organism: Homo sapiens; assay: Cytotoxicity against human D283 cells after 48 hrs by sulforhodamine B assay; assay type: functional, cell-based
Homo sapiens [3] = organism: Homo sapiens; assay: Cytotoxicity against human SJCRH30 cells after 48 hrs by sulforhodamine B assay; assay type: functional, cell-based
A673 = assay: Cytotoxicity against human A673 cells after 48 hrs by sulforhodamine B assay; assay type: functional, cell-based

Cc1nc2c(cc1-c1ccc(O)cc1)cc1c3c(c[nH]c32)CCN1C
inactive: Activity (Hep293TT) | inhibition [1] | Activity (Homo sapiens [2]) | Activity (Homo sapiens [3]) | Activity (A673)

CN1CCc2c[nH]c3c2c1cc1[o+]c2cc4c5c(c[nH]c5c2nc13)CCN4C
inactive: Activity (Hep293TT) | inhibition [1] | Activity (Homo sapiens [2]) | Activity (Homo sapiens [3]) | Activity (A673)
